What was measured:
Format in all cases: cell-based
[1] = target: T1, human A3 receptor W243F mutant fused to YFP (A3 W243F-YFP) (Homo sapiens, UniProt P0DMS8, W243F); experiment: Automated imaging of receptor internalization (granularity analysis), A3 W243F-YFP; conditions: A3 W243F-YFP cells
T1 construct: Full length A3 W243F-YFP was excised and subcloned into a native pcDNA3.1 vector; expressed in transfected cells
T1 sequence (P0DMS8 1-318 W243F): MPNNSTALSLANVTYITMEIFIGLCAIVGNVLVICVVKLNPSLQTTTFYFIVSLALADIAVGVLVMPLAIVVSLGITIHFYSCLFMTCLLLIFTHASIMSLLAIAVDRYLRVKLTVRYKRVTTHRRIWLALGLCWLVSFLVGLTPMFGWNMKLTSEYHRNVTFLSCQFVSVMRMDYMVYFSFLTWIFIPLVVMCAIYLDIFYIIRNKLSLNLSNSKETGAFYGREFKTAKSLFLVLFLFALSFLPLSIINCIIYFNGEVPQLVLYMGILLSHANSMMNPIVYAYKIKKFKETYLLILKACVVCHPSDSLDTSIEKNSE
Source text: Immediately before experimentation, normal growth medium was replaced with serum-free medium. […] Medium was removed and cells were washed once in PBS. […] Images were obtained using an ImageXpress Ultra confocal plate reader (Molecular Devices, Sunnyvale, CA, USA). Four central images were obtained per well using a Plan Fluor 40x NA0.6 extra-long working distance objective. BiFC and YFP images were obtained by excitation with a 488 nm laser line with emission collected through a 525-550 nm band pass filter and H33342 images obtained by excitation with a 405 nm laser line and emission collected through a 447-460 nm band pass filter. Granularity analysis was performed on the resulting images using a granularity algorithm within MetaXpress software (Molecular Devices, Sunnyvale, CA, USA) and intensity above background was set for each individual experiment (Kilpatrick et al., [2010]). Areas of internalized receptors were identified by granularity analysis; granules were defined as having a diameter of between 7 and 15 μm and nuclei as having a diameter of between 6 and 9 μm, resulting in a measurement of the granule count per cell for each image. A basal and FSK control was included in each separate concentration-response CRE-SPAP gene transcription assay and cAMP accumulation assay to allow the responses in each cell line to be expressed as an inhibition of FSK-stimulated SPAP production. […] All data were fitted using non-linear regression in Prism 5 (GraphPad Software, San Diego, CA, USA). […] Statistical significance was determined by Student's unpaired t-test or by one-way ANOVA with Dunnett's post hoc analysis and P < 0.05 was considered statistically significant.

SNAP-A3 = target: T2, SNAP-A3 (Homo sapiens, UniProt P0DMS8); experiment: Confocal imaging of SNAP-tagged receptor internalization, SNAP-A3; conditions: SNAP-A3 transiently expressed in CHO CRE-SPAP cells, BG-AF488 label, 10 μM agonist
T2 construct: the methionine start signal was removed from cDNA encoding the full length A3; expressed in transfected cells; host or cells: CHO CRE-SPAP, transient (Fugene HD)
T2 sequence (P0DMS8 2-318 limits assumed): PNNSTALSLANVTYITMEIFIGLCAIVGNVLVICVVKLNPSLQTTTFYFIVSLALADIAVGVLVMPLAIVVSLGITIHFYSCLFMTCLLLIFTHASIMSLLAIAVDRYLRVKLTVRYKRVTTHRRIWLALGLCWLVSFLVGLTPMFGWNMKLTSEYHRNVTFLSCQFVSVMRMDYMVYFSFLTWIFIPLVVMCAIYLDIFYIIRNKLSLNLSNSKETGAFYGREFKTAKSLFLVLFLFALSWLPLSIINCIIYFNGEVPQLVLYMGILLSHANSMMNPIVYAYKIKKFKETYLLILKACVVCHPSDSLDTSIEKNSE
Protocol: CHO-K1 cells stably expressing a cAMP response element-secreted placental alkaline phosphatase (CRE-SPAP) reporter gene (CHO CRE-SPAP) under hygromycin selectivity and CHO-K1 cells stably expressing β-arrestin2-vYnL (CHO β-arrestin2-vYnL, a gift from Dr. N. Holliday, University of Nottingham, Nottingham, UK) were maintained in DMEM/F12 medium containing 10% FCS and 2 mM L-glutamine at 37°C in a humidified atmosphere of air/CO2 (19:1). […] Cell lines were initially screened for YFP or bimolecular fluorescence complementation (BiFC) fluorescence and CRE-SPAP cells lines were subsequently tested in the CRE-SPAP gene transcription assay. […]
Live-cell BiFC imaging was performed on A3-vYc/β-arrestin2-vYnL and A3 W243F-vYc/β-arrestin2-vYnL cells grown in Nunc Labtek 8-well plates, and images obtained using a Zeiss 710 confocal microscope (Carl Zeiss GmbH, Jena, Germany) fitted with a 63× plan-Apochromat NA1.4 Ph3 oil-immersion objective. […] For both YFP, BiFC and BG-AF488 label, a 488 nm argon laser was used to excite the fluorophore and emission was detected using a BP505-530 filter. […] Images of A3-YFP and A3 W243F-YFP cells were taken with same pinhole diameter, laser power, gain and offset to allow comparison of YFP fluorescence. To obtain fluorescence intensity values, a region of interest was drawn around the plasma membrane of 10 cells per image in Zeiss AIM 4.2 software (Carl Zeiss GmbH).

[2] = target: T3, A3 W243F-vYc/β-arrestin2-vYnL (Homo sapiens, UniProt P0DMS8, W243F); experiment: BiFC of receptor with β-arrestin2 (automated imaging), A3 W243F-vYc; conditions: A3 W243F-vYc/β-arrestin2-vYnL cells; for Maximal BiFC (%): percentage of 10 μM NECA in the cell line
T3 construct: cDNA encoding the full length human A3 receptor; expressed in transfected cells; host or cells: CHO-K1 stably expressing β-arrestin2-vYnL, stably co-transfected with A3 W243F-vYc
T3 sequence (P32121 whole entry partner, one chain of several): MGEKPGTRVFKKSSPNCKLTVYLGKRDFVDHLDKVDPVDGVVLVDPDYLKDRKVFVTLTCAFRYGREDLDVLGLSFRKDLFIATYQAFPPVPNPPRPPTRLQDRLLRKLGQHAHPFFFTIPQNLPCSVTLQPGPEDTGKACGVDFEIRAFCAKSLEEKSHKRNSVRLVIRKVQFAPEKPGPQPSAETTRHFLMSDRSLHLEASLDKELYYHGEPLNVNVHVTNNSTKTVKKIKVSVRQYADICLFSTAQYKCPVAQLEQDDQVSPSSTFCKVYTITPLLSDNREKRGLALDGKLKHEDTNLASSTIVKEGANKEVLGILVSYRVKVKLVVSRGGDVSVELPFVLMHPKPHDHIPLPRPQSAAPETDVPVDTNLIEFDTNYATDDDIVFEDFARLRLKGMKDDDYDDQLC

| effect of pretreatment on NECA-mediated internalization ([1]; 10 μM HEMADO 30 min before NECA 45 min) | % maximal internalization vs. 10 μM NECA at 2 h (BiFC) ([2]; 10 μM, 2 h) [%] | EC50 ([2]; 60 min, read-out: pEC50 (BiFC with β-arrestin2-vYnL) (converted)) [nM] | SMILES | accumulation of internalized receptor after 2 h stimulation ([1]; 10 μM agonist, 2 h) | internalization of SNAP-tagged receptor seen in confocal images (SNAP-A3) | Maximal BiFC (%) ([2]; 60 min) | Maximal internalization (%) ([1]; percentage of internalization with 10 μM NECA in the cell line) |
| --- | --- | --- | --- | --- | --- | --- | --- |
| virtually abolished | 58.0 ± 5.8 | 10.7 | CCCCC#Cc1nc(NC)c2ncn([C@@H]3O[C@H](CO)[C@@H](O)[C@H]3O)c2n1 [HEMADO, 2-(1-hexynyl)-N-methyladenosine] | no accumulation of internalized receptor could be detected | clear punctate granules | 54.5 ± 6.1 |  |
|  |  |  | CCNC(=O)[C@H]1O[C@@H](n2cnc3c(N)ncnc32)[C@H](O)[C@@H]1O [NECA, 5-(N-ethylcarboxamido)adenosine] |  | clear punctate granules | 100 | 100 |

Reference: publication PMC4128046, “Effect of a toggle switch mutation in TM6 of the human adenosine A3 receptor on Gi protein-dependent signalling and Gi-independent receptor internalization” (British Journal of Pharmacology, 2014)
